According to ChEMBL document CHEMBL4308859, “Discovery of Novel Central Nervous System Penetrant Metabotropic Glutamate Receptor Subtype 2 (mGlu2) Negative Allosteric Modulators (NAMs) Based on Functionalized Pyrazolo[1,5- a]pyrimidine-5-carboxamide and Thieno[3,2- b]pyridine-5-carboxamide Cores” (J Med Chem, 2018):

Tests used:
[1] = molecular target: Metabotropic glutamate receptor 2 (Rattus norvegicus, UniProt P31421); assay: (§1) Negative allosteric modulation of rat mGlu2R expressed in HEK293 cells co-expressing Galpha15 assessed as decrease in glutamate-induced calcium mobilization preincubated for 2.3 mins followed by glutamate addition and measured after 1.7 mins by Fluo-4-AM dye based fluorescence assay; type: functional, cell-based
Metabotropic glutamate receptor 2 (Rattus norvegicus, UniProt P31421), sequence (P31421 whole entry): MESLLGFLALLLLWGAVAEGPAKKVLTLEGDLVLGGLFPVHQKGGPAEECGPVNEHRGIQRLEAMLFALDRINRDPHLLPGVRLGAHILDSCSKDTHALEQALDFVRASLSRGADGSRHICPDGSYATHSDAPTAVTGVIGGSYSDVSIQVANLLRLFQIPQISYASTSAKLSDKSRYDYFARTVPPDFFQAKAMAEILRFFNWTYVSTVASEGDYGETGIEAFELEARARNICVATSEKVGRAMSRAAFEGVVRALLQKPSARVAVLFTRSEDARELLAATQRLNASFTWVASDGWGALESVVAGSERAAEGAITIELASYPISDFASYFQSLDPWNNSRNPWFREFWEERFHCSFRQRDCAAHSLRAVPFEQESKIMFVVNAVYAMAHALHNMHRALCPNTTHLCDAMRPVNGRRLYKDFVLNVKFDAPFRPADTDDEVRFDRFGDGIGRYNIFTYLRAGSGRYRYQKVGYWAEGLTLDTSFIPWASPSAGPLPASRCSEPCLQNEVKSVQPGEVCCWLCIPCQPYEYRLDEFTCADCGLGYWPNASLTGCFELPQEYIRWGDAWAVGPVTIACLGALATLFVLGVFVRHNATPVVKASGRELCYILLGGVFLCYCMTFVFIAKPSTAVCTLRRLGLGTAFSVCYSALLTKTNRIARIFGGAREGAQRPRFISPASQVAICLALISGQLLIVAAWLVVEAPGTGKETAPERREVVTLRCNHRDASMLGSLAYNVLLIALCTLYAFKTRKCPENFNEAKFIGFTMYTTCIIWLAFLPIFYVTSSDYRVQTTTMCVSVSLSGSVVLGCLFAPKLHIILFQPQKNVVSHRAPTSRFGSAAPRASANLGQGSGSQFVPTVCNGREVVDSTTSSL

[2] = molecular target: Metabotropic glutamate receptor 2 (Rattus norvegicus) (UniProt P31421); assay: as §1, with “mobilization at 30 uM” for “mobilization”, “assay relative to control” for “assay”; type: functional, cell-based
Metabotropic glutamate receptor 2 (Rattus norvegicus), sequence (P31421 19-872 limits assumed): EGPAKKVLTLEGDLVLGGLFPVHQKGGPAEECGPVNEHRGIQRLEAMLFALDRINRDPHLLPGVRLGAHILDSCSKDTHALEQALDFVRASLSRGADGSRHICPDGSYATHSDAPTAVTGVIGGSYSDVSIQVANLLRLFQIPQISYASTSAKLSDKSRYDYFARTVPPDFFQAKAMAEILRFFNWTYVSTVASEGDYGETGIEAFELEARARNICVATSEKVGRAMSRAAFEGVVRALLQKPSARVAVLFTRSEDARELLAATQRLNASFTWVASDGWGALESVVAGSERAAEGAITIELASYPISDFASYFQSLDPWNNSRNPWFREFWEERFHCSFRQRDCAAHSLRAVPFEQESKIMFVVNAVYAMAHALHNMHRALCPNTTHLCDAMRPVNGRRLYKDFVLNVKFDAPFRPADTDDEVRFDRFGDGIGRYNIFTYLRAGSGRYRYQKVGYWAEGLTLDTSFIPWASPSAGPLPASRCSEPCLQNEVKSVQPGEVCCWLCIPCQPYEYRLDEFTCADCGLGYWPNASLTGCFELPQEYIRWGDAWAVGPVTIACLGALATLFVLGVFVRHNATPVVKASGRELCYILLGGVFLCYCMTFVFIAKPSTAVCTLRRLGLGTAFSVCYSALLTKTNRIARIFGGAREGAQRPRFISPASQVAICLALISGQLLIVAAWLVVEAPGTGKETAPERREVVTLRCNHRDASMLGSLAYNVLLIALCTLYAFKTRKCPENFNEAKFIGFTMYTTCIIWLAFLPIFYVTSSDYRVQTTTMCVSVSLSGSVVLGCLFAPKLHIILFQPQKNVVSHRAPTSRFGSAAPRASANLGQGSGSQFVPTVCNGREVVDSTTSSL

[3] = Fraction unbound in rat plasma after 4 hrs by equilibrium dialysis method; type: ADME, cell-free
[4] = Fraction unbound in human plasma after 4 hrs by equilibrium dialysis method; type: ADME, cell-free
[5] = Fraction unbound in rat brain; type: ADME, tissue-based
[6] = Brain to plasma partition coefficient, Kp of the compound in Sprague-Dawley rat at 0.2 mg/kg, iv administered as cassette dose by LC-MS/MS analysis; type: ADME, organism-based; settings: brain and plasma
[7] = Unbound brain to plasma ratio in Sprague-Dawley rat at 0.2 mg/kg, iv administered as cassette dose by LC-MS/MS analysis; type: ADME, organism-based; settings: brain and plasma, read-out: K(p,uu,brain)
[8] = Plasma clearance in Sprague-Dawley rat at 0.2 mg/kg, iv administered as cassette dose by LC-MS/MS analysis; type: ADME, organism-based
[9] = Half life in Sprague-Dawley rat at 0.2 mg/kg, iv administered as cassette dose by LC-MS/MS analysis; type: ADME, organism-based; settings: Sprague-Dawley, in vivo
[10] = Volume of distribution at steady state in Sprague-Dawley rat at 0.2 mg/kg, iv administered as cassette dose by LC-MS/MS analysis; type: ADME, organism-based; settings: in vivo, read-out: Vdss
[11] = molecular target: Metabotropic glutamate receptor 2 (Homo sapiens, UniProt Q14416); assay: Negative allosteric modulation of mGlu2R (unknown origin)
Metabotropic glutamate receptor 2 (Homo sapiens, UniProt Q14416), sequence (Q14416 whole entry): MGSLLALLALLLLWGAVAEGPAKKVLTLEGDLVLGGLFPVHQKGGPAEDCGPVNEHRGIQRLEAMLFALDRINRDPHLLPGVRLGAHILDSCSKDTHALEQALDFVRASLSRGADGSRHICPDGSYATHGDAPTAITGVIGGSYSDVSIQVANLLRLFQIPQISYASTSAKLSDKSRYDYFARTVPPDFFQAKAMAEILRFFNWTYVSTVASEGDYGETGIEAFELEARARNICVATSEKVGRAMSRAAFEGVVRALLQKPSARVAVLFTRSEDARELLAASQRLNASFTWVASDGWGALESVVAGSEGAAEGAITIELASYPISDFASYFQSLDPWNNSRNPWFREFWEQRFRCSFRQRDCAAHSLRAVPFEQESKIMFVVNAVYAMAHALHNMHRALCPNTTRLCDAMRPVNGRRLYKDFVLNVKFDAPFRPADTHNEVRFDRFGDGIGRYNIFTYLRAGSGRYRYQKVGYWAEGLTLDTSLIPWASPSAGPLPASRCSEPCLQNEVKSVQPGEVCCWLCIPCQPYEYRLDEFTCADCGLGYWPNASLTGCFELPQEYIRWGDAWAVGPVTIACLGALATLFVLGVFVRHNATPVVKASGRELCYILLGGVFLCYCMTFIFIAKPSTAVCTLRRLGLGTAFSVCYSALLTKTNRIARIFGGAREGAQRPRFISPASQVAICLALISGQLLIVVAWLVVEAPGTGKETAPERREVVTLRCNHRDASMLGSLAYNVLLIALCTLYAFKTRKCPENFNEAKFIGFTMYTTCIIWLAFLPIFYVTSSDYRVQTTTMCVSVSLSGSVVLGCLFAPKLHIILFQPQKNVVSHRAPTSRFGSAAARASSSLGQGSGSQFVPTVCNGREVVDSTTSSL

[12] = molecular target: Metabotropic glutamate receptor 3 (Homo sapiens, UniProt Q14832); assay: Negative allosteric modulation of mGlu3R (unknown origin)
Metabotropic glutamate receptor 3, sequence (Q14832 whole entry): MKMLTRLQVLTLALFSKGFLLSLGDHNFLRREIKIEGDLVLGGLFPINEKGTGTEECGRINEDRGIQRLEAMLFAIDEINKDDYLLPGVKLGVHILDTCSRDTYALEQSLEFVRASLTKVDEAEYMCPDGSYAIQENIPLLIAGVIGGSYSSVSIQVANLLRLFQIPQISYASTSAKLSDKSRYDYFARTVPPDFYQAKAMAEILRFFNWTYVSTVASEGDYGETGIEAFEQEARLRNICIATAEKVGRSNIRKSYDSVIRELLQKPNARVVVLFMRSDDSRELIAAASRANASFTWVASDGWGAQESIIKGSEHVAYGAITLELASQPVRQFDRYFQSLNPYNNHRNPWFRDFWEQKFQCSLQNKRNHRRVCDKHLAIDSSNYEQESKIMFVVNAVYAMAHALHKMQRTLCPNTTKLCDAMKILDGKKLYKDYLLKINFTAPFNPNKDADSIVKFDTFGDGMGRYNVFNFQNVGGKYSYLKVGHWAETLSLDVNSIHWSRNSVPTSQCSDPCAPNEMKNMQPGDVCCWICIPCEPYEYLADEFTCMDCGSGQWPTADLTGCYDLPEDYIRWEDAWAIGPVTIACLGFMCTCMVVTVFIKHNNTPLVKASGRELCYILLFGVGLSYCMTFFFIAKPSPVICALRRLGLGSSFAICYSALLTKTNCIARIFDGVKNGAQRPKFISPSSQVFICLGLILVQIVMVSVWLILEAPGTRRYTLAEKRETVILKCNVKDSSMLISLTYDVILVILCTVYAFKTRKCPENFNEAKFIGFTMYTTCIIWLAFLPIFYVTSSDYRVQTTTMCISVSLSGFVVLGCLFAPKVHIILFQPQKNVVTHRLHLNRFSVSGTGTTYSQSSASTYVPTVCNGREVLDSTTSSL

[13] = Brain to plasma partition coefficient, Kp of the compound in rat; type: ADME; settings: brain and plasma

Row | Compound | IC50 [1] [nM] | Emax [2] [%] | also measured
1 | CN(Cc1cc2nc(C(N)=O)cc(-c3ccc(F)cc3)c2s1)C1COC1 | 1410 | 2.4 | –
2 | NC(=O)c1cc(-c2ccc(F)cc2)c2sc(CN3CCC3)cc2n1 | > 10000 | – | –
3 | NC(=O)c1cc(-c2ccc(F)cc2)c2sc(COc3ccc(F)cc3)cc2n1 | > 10000 | – | –
4 | COc1ccc(-c2cc(C(N)=O)nc3cc(CN4CCOCC4)sc23)cc1 | 2510 | 2.6 | –
5 | Cc1cc(OCc2cc3nc(C(N)=O)cc(-c4ccc(F)cc4)n3n2)ccn1 | > 10000 | – | –
6 | NC(=O)c1cc(-c2ccc(F)cc2)c2sc(CN3CCOCC3)cc2n1 | 3890 | 2.9 | –
7 | C[C@@H]1CN(Cc2ccc3c(c2)c(=O)c(C(N)=O)cn3-c2ccc(F)cc2)C[C@H](C)O1 | – | – | IC50 [11]: 207 nM; IC50 [12]: > 30 µM; Kp [13]: 0.3
8 | NC(=O)c1cc(-c2ccc(F)cc2)c2sc(COc3ccc(F)nc3)cc2n1 | 891 | 13.2 | Kp [6]: > 2; Kp uu [7]: < 0.4
9 | NC(=O)c1cc(-c2ccc(F)cc2)c2sc(CN3CCC(F)(F)CC3)cc2n1 | 1050 | 2.2 | –
10 | NC(=O)c1cc(-c2ccc(F)cc2)c2sc(CN3CCCCC3)cc2n1 | 1740 | 2.2 | –
11 | Cc1ccc(OCc2cc3nc(C(N)=O)cc(-c4ccc(F)cc4)c3s2)c(C)n1 | 741 | 3.3 | Kp [6]: > 2; Kp uu [7]: < 0.4
12 | Cn1ccc(OCc2cc3nc(C(N)=O)cc(-c4ccc(F)cc4)c3s2)n1 | 1510 | 1.9 | –

The remaining molecules from weak to strong by IC50 [1], led by results:

Row | IC50 [1] [nM] | Emax [2] [%] | Compound | also measured
13 | 676 | 26.2 | NC(=O)c1cc(-c2ccc(F)cc2)c2sc(COc3cncnc3)cc2n1 | –
14 | 676 | 2.2 | Cc1ccc(OCc2cc3nc(C(N)=O)cc(-c4ccc(F)cc4)c3s2)cn1 | fraction unbound at 4 h [3]: 0.02; fraction unbound at 4 h [4]: 0.05; fraction unbound [5]: 0.003; Kp [6]: 7.99; Kp uu [7]: 0.2
15 | 589 | 6.9 | Cc1ncc(OCc2cc3nc(C(N)=O)cc(-c4ccc(F)cc4)c3s2)cn1 | –
16 | 447 | – | [2H]C([2H])([2H])Oc1ccc(-c2cc(C(N)=O)nc3cc(COc4cnc(C)nc4)sc23)cc1 | –
17 | 427 | 2.7 | COc1ccc(-c2cc(C(N)=O)nc3cc(COc4cnc(C)nc4)sc23)c(F)c1 | –
18 | 316 | 2.6 | COc1ccc(-c2cc(C(N)=O)nc3cc(COc4cnc(C)nc4)sc23)cc1 | Emax ([2]; tested as the 2H-labelled form): 2.8%; fraction unbound at 4 h [3]: 0.02; fraction unbound at 4 h [4]: 0.01; fraction unbound [5]: 0.003; Kp [6]: 3.41; Kp uu [7]: 0.49; clearance [8]: 389 mL/min/kg; half-life [9]: 14.3 min; Vd [10]: 6.49 L/kg
19 | 288 | 35.4 | COc1ccc(-c2cc(C(N)=O)nc3cc(COc4ccnc(C)c4)nn23)c(F)c1 | fraction unbound at 4 h [3]: 0.03 to 0.12; fraction unbound at 4 h [4]: 0.03 to 0.12; fraction unbound [5]: 0.003 to 0.009; Kp [6]: 2.5 to 2.7; Kp uu [7]: 0.4 to 0.6
